Assay results reported in patent publication EP0309765A2, “1(2H)-Phthalazinones as cytoprotective agents” (FISONS CORPORATION, priority 1987, dated 1989).
Where a name gives a salt, the structure may show the parent alone.

What follows are compounds tested on Indomethacin-induced Gastric Lesions (assay: Reversal of indomethacin-induced gastric lesions (number of macroscopically visible hemorrhagic lesions in the glandular stomach)). Conditions: Rattus norvegicus, ip, 6 h; test compound 50 mg/kg intraperitoneal, 1 hour before 25 mg/kg oral indomethacin; lesions counted six hours after indomethacin; versus saline control group; read-out: Percent Inhibition.
Type: in vivo, Male, Sprague-Dawley rats
Experimental: The methodology for determining the degree of inhibition of gastric lesion formation by the compounds of formula 1 is described below and the results, expressed as percent inhibition, are given in Table 1. Reversal of Indomethacin-induced Gastric Lesions Male, Sprague-Dawley rats weighing 200-225 grams were fasted 24 hours prior to the intraperitoneal administration of the test compounds. The standard screening dosed employed was either 100 or 50 mg/kg. One hour later, the rats were orally administered 25 mg/kg of indomethacin. Both indomethacin and the compounds were suspended in 1% Clearjel ("Instant Clearjel®", a food grade pregelatinized starch from National Starch and Chemical Corporation, New York, N.Y.) or .85% NaCl saline for dosing. Six hours after indomethacin administration, the animals were sacrificed, their stomachs removed, opened along the line of greater curvature, and rinsed with distilled water. The number of macroscopically visible hemmorhagic lesions (dark brown discolorations) in the glandular portion of the stomach was enumerated. […] [table]

SMILES	inhibition in vivo at 50 mg/kg
COc1ccc(/C=C/c2ccc3c(=O)n(CCCN4CCCCC4)ncc3c2)cc1 [Example 2, Trans-6-[2-(4-methoxyphenyl)ethenyl]-2-(3-piperidinopropyl)-phthalazin-1(2H)-one hydrobromide]	91%
COc1ccc(/C=C/c2ccc3c(=O)n(CCN4CCOCC4)ncc3c2)cc1 [Example 4, Trans-6-[2-(4-methoxyphenyl)ethenyl]-2-(2-morpholinoethyl)-phthalazin-1(2H)-one hydrobromide]	7%
COc1ccc(/C=C/c2ccc3c(=O)n(CCCN4CCNCC4)ncc3c2)cc1 [Example 5, Trans-6-[2-(4-methoxyphenyl)ethenyl]-2-[3-(1-piperazino)-propyl]phthalazin-1(2H)-one]	89%
CNCCCn1ncc2cc(/C=C/c3ccc(OC)cc3)ccc2c1=O [Example 7, Trans-6-[2-(4-methoxyphenyl)ethenyl]-2-[3-(methylamino)-propyl]phthalazin-1(2H)-one hydrobromide]	79%
COc1ccc(/C=C/c2ccc3c(=O)n(CCCN)ncc3c2)cc1 [Example 8, Trans-6-[2-(4-methoxyphenyl)ethenyl]-2-(3-aminopropyl)-phthalazin-1(2H)-one hydrobromide]	96%
COc1ccc(/C=C/c2ccc3c(=O)n(CCCCN(C)C)ncc3c2)cc1 [Example 9, Trans-6-[2-(4-methoxyphenyl)ethenyl]-2-[4-(dimethylamino)-butyl]phthalazin-1(2H)-one hydrobromide]	85%
COc1ccc(/C=C\c2ccc3c(=O)n(CCCN(C)C)ncc3c2)cc1 [Example 10, CIs-6-[2-(4-methoxyphenyl)ethenyl]-2-[3-(dimethylamino)propyl]phthalazin-1(2H)-one cyclohexylsulfamate]	61%
COc1ccc(/C=C/c2ccc3c(=O)n(CCCN(C)C)ncc3c2)cc1 [Example 13, Trans-6-[2-(4-methoxyphenyl)ethenyl]-2-[3-dimethylamino)-propyl]phthalazin-1(2H)-one hydrobromide]	99%
CN(C)CCCn1ncc2cc(/C=C/c3ccc(O)cc3)ccc2c1=O [Example 14, Trans-6-[2-(4-hydroxyphenyl)ethenyl]-2-[3-(dimethylamino)-propyl]phthalazin-1(2H)-one hydrochloride]	96.3%
CN(C)CCCn1ncc2cc(/C=C/c3ccccc3)ccc2c1=O [Example 16, Trans-2-[3-(dimethylamino)propyl]-6-(2-phenylethenyl)-1(2H)-phthalazinone]	80%

Same assay, conditions: Rattus norvegicus, ip, 6 h; test compound 100 mg/kg intraperitoneal, 1 hour before 25 mg/kg oral indomethacin; lesions counted six hours after indomethacin; versus saline control group; read-out: Percent Inhibition

SMILES	inhibition in vivo at 100 mg/kg
COc1ccc(/C=C/c2ccc3c(=O)n(CCN(C(C)C)C(C)C)ncc3c2)cc1 [Example 1, Trans-6-[2-(4-methoxyphenyl)ethenyl]-2-[2-(diisopropylamino)-ethyl]phthalazin-1(2H)-one hydrobromide]	92%
COc1ccc(/C=C/c2ccc3c(=O)n(CCN(C)C)ncc3c2)cc1 [Example 3, Trans-6-[2-(4-methoxyphenyl)ethenyl]-2-[2-(dimethylamino)-ethyl]phthalazin-1(2H)-one hydrobromide]	65%
COc1ccc(/C=C/c2ccc3c(=O)n(C4CCN(C)CC4)ncc3c2)cc1 [Example 6, Trans-6-[2-(4-methoxyphenyl)ethenyl]-2-(1-methyl-4-piperidinyl)phthalazin-1(2H)-one]	63%
O=c1[nH]ncc2cc(/C=C/c3ccc(O)cc3)ccc12 [Example 11, Trans-6-[2-(4-Hydroxyphenyl)ethenyl]-phthalazin-1(2H)-one]	45%
O=c1[nH]ncc2cc(/C=C/c3ccccc3)ccc12 [Example 12, Trans-6-[2-phenylethenyl]phthalazin-1(2H)-one]	43%
CN(C)CCn1ncc2cc(/C=C/c3ccc(O)cc3)ccc2c1=O [Example 15, Trans-6-[2-(4-hydroxyphenyl)ethenyl]-2-[2-(dimethylamino)-ethyl]-1(2H)-phthalazinone hydrochloride]	7.2%
O=c1c2ccc(/C=C/c3ccccc3)cc2cnn1CCO [Example 17, Trans-2-(2-hydroxyethyl)-6-(2-phenylethenyl)-1(2H)-phthalazinone]	59%
